Tests used:
[1] = system: human lung cancer NCI-H2122 subcutaneous xenotransplanted tumor; assay: Pharmacodynamic evaluation in nude mouse subcutaneous xenotransplanted model of human lung cancer NCI-H2122; format: in vivo, Balb/c nude mouse; settings: 30 mg/kg each agent
Method: The anti-tumor effect and safety of compound 11 of the present invention were evaluated in a Balb/c nude mouse animal model of subcutaneous xenotransplanted NCI-H2122.
BALB/c; nude mice, female, 6-7 weeks old (the age of mice when tumor cells were inoculated), purchased from Jiangsu Jicui Yaokang Biotechnology Co., Ltd.
The solvent control group was given DMSO:castor oil:5% glucose injection=20:10:70 (v/v/v).
AMG-510: an appropriate amount of AMG-510 was weighed, and an appropriate amount of DMSO:castor oil:5% glucose injection=20:10:70 (v/v/v) was added. After the above mixture was fully dissolved, an appropriate amount of 1 M hydrochloric acid was added, vortexed and mixed to prepare a solution with a concentration of 3 mg/mL.
Compound 11: an appropriate amount of compound 11 was weighed, and an appropriate amount of DMSO:castor oil:5% glucose injection=20:10:70 (v/v/v) was added. After the above mixture was fully dissolved, an appropriate amount of 1 M hydrochloric acid was added, vortexed and mixed to prepare a solution with a concentration of 3 mg/mL.
H2122 cells were cultured in 1640 culture medium containing 10% fetal bovine serum and 1% penicillin-streptomycin-amphotericin B solution. H2122 cells in the exponential growth phase were collected and resuspended in matrigel solution (matrigel:PBS=1:1 (V/V)) to a suitable concentration for subcutaneous tumor inoculation in nude mice.
Female Balb/c nude mice were subcutaneously inoculated with about 3.0×10^6H2122 cells on the right sides of their backs. When the average volume of the tumors reaches about 150-200 mm^3, the mice were randomly divided according to the tumor sizes with 6 mice in each group.
• Group 1 (G1), solvent control group; • Group 2 (G2), AMG-510 was given by intragastric administration at a dose of 30 mg/kg; • Group 3 (G3), Example 11 was given by intragastric administration at a dose of 30 mg/kg; • Group 4 (G4), AMG-510 and Example 11 were administered in combination, and the dosages were respectively: AMG-510, 30 mg/kg (QD); Example 11, 30 mg/kg (QD).
After tumor inoculation, routine monitoring included the effects of tumor growth and treatment on the normal behaviors of the animals, specifically the mobility, feeding and drinking, weight gain or loss, eyes, coat and other abnormalities of the experimental animals.
Calculation formulae for a relative tumor volume (RTV), a relative tumor proliferation rate (T/C) and a tumor inhibition percentage (IR) were as follows: • (1) TV (tumor volume)=½×a×b^2, wherein a and b represent the length and width of the tumor respectively; • (2) RTV (relative tumor volume)=Vt/Vo, wherein Vo is the tumor volume measured at the time of administration when grouping (i.e. do), and Vt is the tumor volume at each measurement; • (3) relative tumor proliferation rate T/C (%)=TRTV/CRTV×100%, wherein TRTV is the RTV of the treatment group and CRTV is the RTV of the control group; • (4) Tumor growth inhibition rate TGI(%)=(1−T/C)×100%; wherein, T and C are the relative tumor volumes of the treatment group and the control group at a specific time point. • (5) IR (%)=(1−TWt/TWc)×100%, wherein, TWt is the tumor weight of the treatment group and TWc is the tumor weight of the control group. The anti-tumor evaluation criteria are (cytotoxic drugs): T/C(%)>40% is invalid; T/C(%)≤40%, and after statistical processing, P<0.05 is effective.

[2] = system: OCI-AML5 cells; assay: Inhibition of OCI-AML5 cell proliferation (CellTiter-Glo); format: cell-based; settings: Homo sapiens, OCI-AML-5; OCI-AML5 cells (SOS1 N233Y mutation), 120 hours
Method: The following method was used to determine the influence of the compounds of the present invention on OCI-AML5 cells proliferation. OCI-AML5 cells (containing SOS1 N233Y mutation) were purchased from Nanjing Kebai Biotechnology Co., Ltd. and cultured in MEMα medium containing 10% fetal bovine serum, 100 U penicillin, and 100 μg/mL streptomycin. The activities of the cells were determined by CellTiter-Glo® Luminescent Cell Viability Assay Kit (Promega, Art. No. G7573).
The experimental method was operated according to the steps in the kit instruction, which were briefly described as follows: the test compounds were first dissolved in DMSO to prepare storage solutions of 10 mM, and then diluted with culture mediums to prepare test samples. The final concentrations of the compounds were 10000 nM to 0.15 nM. Cells in logarithmic phase were inoculated in a 96-well cell culture plate with 1,000 cells per well, after cultured overnight in 5% CO2 incubator at 37° C., the test compounds were added to the incubator to continue the culture for 120 hours. After the culture was completed, 50 μL of CellTiter-Glo detection solution was added to each well, shaken for 5 minutes and then stood for 10 minutes. Then, a Luminescence mode was used to read the luminescence values of each well of the samples on a microplate reader.

[3] = molecular target: T1, KRAS-G12C/SOS1 (Homo sapiens, UniProt Q07889); assay: Blocking the binding of KRAS G12C protein to SOS1 (Cisbio KRAS-G12C/SOS1 binding assay kit, TR-FRET); settings: Tag1-SOS1 and Tag2-KRAS-G12C, TR-FRET 665/620; read-out: IC50 (nM) Inhibition of KRAS-G12C/SOS1 binding
T1 construct: purchased Cisbio 63ADK000CB16PEG
T1 sequence (Q07889 1-1333): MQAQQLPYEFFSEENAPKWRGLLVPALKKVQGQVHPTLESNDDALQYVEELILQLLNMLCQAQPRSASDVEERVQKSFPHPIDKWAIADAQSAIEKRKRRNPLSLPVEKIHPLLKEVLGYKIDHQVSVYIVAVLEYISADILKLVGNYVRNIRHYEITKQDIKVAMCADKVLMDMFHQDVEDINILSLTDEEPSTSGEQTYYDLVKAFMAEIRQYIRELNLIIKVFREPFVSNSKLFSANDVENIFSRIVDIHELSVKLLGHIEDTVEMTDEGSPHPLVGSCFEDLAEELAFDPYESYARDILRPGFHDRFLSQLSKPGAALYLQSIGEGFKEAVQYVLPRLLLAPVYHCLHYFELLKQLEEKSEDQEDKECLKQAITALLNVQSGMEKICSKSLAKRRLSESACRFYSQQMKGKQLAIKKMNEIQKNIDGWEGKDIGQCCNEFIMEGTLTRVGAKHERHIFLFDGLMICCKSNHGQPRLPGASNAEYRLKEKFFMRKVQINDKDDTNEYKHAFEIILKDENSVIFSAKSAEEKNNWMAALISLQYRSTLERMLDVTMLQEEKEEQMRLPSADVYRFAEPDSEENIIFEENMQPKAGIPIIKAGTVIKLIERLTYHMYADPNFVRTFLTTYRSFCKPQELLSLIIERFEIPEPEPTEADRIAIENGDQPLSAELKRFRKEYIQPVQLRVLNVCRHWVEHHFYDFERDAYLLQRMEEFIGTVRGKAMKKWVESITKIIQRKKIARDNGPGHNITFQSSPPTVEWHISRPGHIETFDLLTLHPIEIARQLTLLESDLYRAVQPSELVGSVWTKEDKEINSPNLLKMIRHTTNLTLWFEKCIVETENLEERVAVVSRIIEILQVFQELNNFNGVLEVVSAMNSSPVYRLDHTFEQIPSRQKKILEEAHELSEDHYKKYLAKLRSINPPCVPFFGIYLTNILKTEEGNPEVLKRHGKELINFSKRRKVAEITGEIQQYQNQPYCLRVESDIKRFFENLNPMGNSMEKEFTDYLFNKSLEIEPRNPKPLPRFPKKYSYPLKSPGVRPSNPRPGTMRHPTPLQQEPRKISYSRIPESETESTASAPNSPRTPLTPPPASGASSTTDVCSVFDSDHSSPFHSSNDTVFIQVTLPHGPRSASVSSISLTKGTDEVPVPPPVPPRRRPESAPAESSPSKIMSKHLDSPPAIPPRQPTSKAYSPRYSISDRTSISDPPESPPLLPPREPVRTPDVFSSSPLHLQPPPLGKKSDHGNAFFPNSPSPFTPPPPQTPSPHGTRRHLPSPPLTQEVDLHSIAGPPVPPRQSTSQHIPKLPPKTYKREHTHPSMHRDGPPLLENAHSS
Text: The following method was used to determine the abilities of compounds of the invention to block the interaction of SOS1 with the KRAS G12C protein in vitro. KRAS-G12C/SOS1 BINDING ASSAY KITS (Art. No. 63ADK000CB16PEG) from Cisbio was used in this method. Please refer to the kit instruction for detailed experimental operations.
The experimental process can be briefly described as follows: diluent buffer (Art. No. 62DLBDDF) was used to prepare a working solution with a concentration of 5× for Tag1-SOS1 and Tag2-KRAS-G12C protein. The test compounds were dissolved in DMSO to prepare storage solutions of 10 mM, and then the solutions were diluted with dilution buffer for later use. First, 2 μL of the test compound (the final concentrations of the reaction system were 10000 nM-0.1 nM) was added to the well, then 4 μL of Tag1-SOS1 5× working solution and 4 μL of Tag2-KRAS-G12C 5× working solution were added, and the above mixture was centrifuged, mixed, and stood for 15 minutes; then 10 μL of premixed anti-Tag1-Tb^3+ and anti-Tag2-XL665 were added, and the mixture was incubated at room temperature for 2 hours; finally, a microplate reader was used in […] mode to measure the fluorescence intensity of each well emitting wavelengths of 620 nm and […] under the excitation wavelength of 304 nm, and the fluorescence intensity ratio 665/620 in each well was calculated. Compared with the fluorescence intensity ratio of a control group (0.1% DMSO), the percentage inhibition rates of the test compounds at each concentration were calculated, and the IC50 values of the compounds were obtained by performing nonlinear regression analysis with logarithmic values of the compound concentration-inhibition rate by GraphPad Prism 5 software, which was shown in Table 1.

C=CC(=O)N1CCN(c2nc(=O)n(-c3c(C)ccnc3C(C)C)c3nc(-c4c(O)cccc4F)c(F)cc23)[C@@H](C)C1 [AMG-510, reference compound]
Relative tumor volume (x ± S) ([1]; 16 days after administration): 2.90 ± 0.26 | TGI % ([1]; 16 days after administration): 43.0% | Tumor volume (x ± S) ([1]; Day 0 after administration, intragastric): 199 ± 21 mm^3 | Tumor volume (x ± S) ([1]; Day 3 after administration, intragastric): 263 ± 17 mm^3 | Tumor volume (x ± S) ([1]; Day 7 after administration, intragastric): 343 ± 29 mm^3 | Tumor volume (x ± S) ([1]; Day 10 after administration, intragastric): 406 ± 38 mm^3 | Tumor volume (x ± S) ([1]; Day 14 after administration, intragastric): 538 ± 47 mm^3 | Tumor volume (x ± S) ([1]; Day 16 after administration, intragastric): 563 ± 58 mm^3 | Tumor volume (x ± S) ([1]; Table 11, 16 days after administration, in mm³): 563 ± 58 | Inhibition rate of tumor weight (%) ([1]; end of the experiment): 44.3% | Tumor weight (g) (x ± S) ([1]; end of the experiment): 0.4203 ± 0.0447 g

COc1cc2nc(C)nc(N[C@H](C)c3cccc(C#N)c3C)c2cc1N1CCN2C(=O)CCC2C1 (stereo partly drawn) [Compound 3, 3-((1R)-1-((7-methoxy-2-methyl-6-(6-oxohexahydropyrrolo[1,2-a]pyrazin-2(1H)-yl)quinazolin-4-yl)amino)ethyl)-2-methylbenzonitrile]
IC50 [2]: 42.9 nM

COc1cc2nc(C)nc(N[C@H](C)c3cccc(C#N)c3C)c2cc1N1CCC(N2CCOCC2)CC1 [Compound 6, (R)-3-(1-((7-methoxy-2-methyl-6-(4-morpholinopiperidin-1-yl)quinazolin-4-yl)amino)ethyl)-2-methylbenzonitrile]
IC50 [2]: 5.5 nM | IC50 [3]: 1.1 nM

COc1cc2nc(C)nc(N[C@H](C)c3cccc(C#N)c3C)c2cc1N1CC2COCC2C1 (stereo partly drawn) [Compound 9, 3-((1R)-1-((7-methoxy-2-methyl-6-(tetrahydro-1H-furo[3,4-c]pyrrol-5(3H)-yl)quinazolin-4-yl)amino)ethyl)-2-methylbenzonitrile]
IC50 [2]: 25 nM | IC50 [3]: 53.7 nM

COc1cc2nc(C)nc(N[C@H](C)c3cccc(C#N)c3C)c2cc1N1CCC2(CC1)CN(S(C)(=O)=O)C2 [Compound 16, (R)-3-(1-((7-methoxy-2-methyl-6-(2-(methylsulfonyl)-2,7-diazaspiro[3.5]nonan-7-yl)quinazolin-4-yl)amino)ethyl)-2-methylbenzonitrile]
IC50 [3]: 54.3 nM

COc1cc2nc(C)nc(N[C@H](C)c3cccc(C#N)c3C)c2cc1N1CCC(N2CCCC2=O)CC1 [Compound 21, (R)-3-(1-((7-methoxy-2-methyl-6-(4-(2-oxopyrrolidin-1-yl)piperidin-1-yl)quinazolin-4-yl)amino)ethyl)-2-methylbenzonitrile]
IC50 [3]: 63.2 nM

COc1cc2nc(C)nc(N[C@H](C)c3cccc(C#N)c3C)c2cc1N1CCC(N2CCN(S(C)(=O)=O)CC2)CC1 [Compound 23, (R)-3-(1-((7-methoxy-2-methyl-6-(4-(4-(methylsulfonyl)piperazin-1-yl)piperidin-1-yl)quinazolin-4-yl)amino)ethyl)-2-methylbenzonitrile]
IC50 [2]: 41.1 nM
